Measurements reported in patent US10597388B2, “Pyridazinone herbicides” (FMC CORPORATION, priority 2014, dated 2020).

Tests used:
Assay in all cases: Test C greenhouse herbicide test, pre- and postemergence
Type in all cases: in vivo
soybean (Glycine max) = test system: soybean (Glycine max)
How it was run: (§1)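 Pre- and postemergence greenhouse screen; values are visual control ratings, 0 meaning no effect and 100 complete kill, assigned relative to untreated plants after 13 to 15 d.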

[1] = test system: galium (catchweed bedstraw, Galium aparine)
How it was run: as §1

[2] = test system: foxtail, giant (giant foxtail, Setaria faberii)
How it was run: as §1

[3] = test system: oilseed rape (Brassica napus)
How it was run: as §1

[4] = test system: ragweed (common ragweed, Ambrosia elatior)
How it was run: as §1

[5] = test system: velvetleaf (Abutilon theophrasti)
How it was run: as §1

[6] = test system: pigweed (Amaranthus retroflexus)
How it was run: as §1

[7] = test system: wheat (winter wheat, Triticum aestivum)
How it was run: as §1

[8] = test system: blackgrass (Alopecurus myosuroides)
How it was run: as §1

[9] = test system: ryegrass, Italian (Italian ryegrass, Lolium multiflorum)
How it was run: as §1

[10] = test system: barnyardgrass (Echinochloa crus-galli)
How it was run: as §1

corn (Zea mays) = test system: corn (Zea mays)
How it was run: as §1

[11] = test system: lambsquarters (Chenopodium album)
How it was run: as §1

[12] = test system: crabgrass, large (large crabgrass, Digitaria sanguinalis)
How it was run: as §1

[13] = test system: nutsedge, yellow (yellow nutsedge, Cyperus esculentus)
How it was run: as §1

[14] = Postemergence, 31 g ai/ha, scale 0 to 100 (0 no effect, 100 complete control)
[15] = Postemergence, 62 g ai/ha, 0 to 100 scale (0 no effect, 100 complete control)
[16] = Postemergence, 250 g ai/ha, scale 0 to 100, 0 no effect, 100 complete control, 13 to 15 d
[17] = postemergence, 125 g ai/ha, scale 0 to 100, 0 no effect, 100 complete control
[18] = Preemergence, 31 g ai/ha, scale 0 to 100, 0 is no effect, 100 is complete control
[19] = Preemergence, 62 g ai/ha, scale 0 to 100, 0 is no effect, 100 is complete control
[20] = Preemergence, 125 g ai/ha, scale 0 to 100, 0 is no effect, 100 is complete control
[21] = Preemergence, 250 g ai/ha, scale 0 to 100, 0 no effect, 100 complete control

SMILES: COC(=O)Oc1c(C)nn(C)c(=O)c1-c1ccc(F)c2ccccc12 [Compound 130]
- Plant response rating, Soybean (soybean (Glycine max); [14]): 10
- Soybean plant response rating (soybean (Glycine max); [15]): 15
- Plant response rating, Soybean (soybean (Glycine max); [16]): 50
- Soybean plant response rating (soybean (Glycine max); [17]): 25
- Plant response rating, Galium [1, 14]: 95
- Galium plant response rating [1, 15]: 95
- Plant response rating, Galium [1, 16]: 98
- Galium plant response rating [1, 17]: 95
- Plant response rating, Foxtail, Giant [2, 14]: 20
- Foxtail, Giant plant response rating [2, 15]: 20
- Plant response rating, Foxtail, Giant [2, 16]: 70
- Foxtail, Giant plant response rating [2, 17]: 40
- Plant response rating, Oilseed Rape [3, 14]: 0
- Oilseed Rape plant response rating [3, 15]: 0
- Plant response rating, Oilseed Rape [3, 16]: 0
- Oilseed Rape plant response rating [3, 17]: 0
- Plant response rating, Ragweed [4, 14]: 85
- Ragweed plant response rating [4, 15]: 90
- Plant response rating, Ragweed [4, 16]: 98
- Ragweed plant response rating [4, 17]: 98
- Plant response rating, Velvetleaf [5, 14]: 75
- Velvetleaf plant response rating [5, 15]: 70
- Plant response rating, Velvetleaf [5, 16]: 98
- Velvetleaf plant response rating [5, 17]: 98
- Plant response rating, Pigweed [6, 14]: 50
- Pigweed plant response rating [6, 15]: 70
- Plant response rating, Pigweed [6, 16]: 90
- Pigweed plant response rating [6, 17]: 90
- Plant response rating, Wheat [7, 14]: 0
- Wheat plant response rating [7, 15]: 5
- Plant response rating, Wheat [7, 16]: 15
- Wheat plant response rating [7, 17]: 10
- Plant response rating, Blackgrass [8, 14]: 30
- Blackgrass plant response rating [8, 15]: 35
- Plant response rating, Blackgrass [8, 16]: 60
- Blackgrass plant response rating [8, 17]: 55
- Plant response rating, Ryegrass, Italian [9, 14]: 90
- Ryegrass, Italian plant response rating [9, 15]: 90
- Plant response rating, Ryegrass, Italian [9, 16]: 95
- Ryegrass, Italian plant response rating [9, 17]: 95
- Plant response rating, Barnyardgrass [10, 14]: 30
- Barnyardgrass plant response rating [10, 15]: 30
- Plant response rating, Barnyardgrass ([10]; Postemergence, 125 g ai/ha, scale 0 to 100, 0 is no effect, 100 is complete control): 35
- Plant response rating, Barnyardgrass [10, 16]: 55
- Plant response rating, Corn (corn (Zea mays); [14]): 5
- Corn plant response rating (corn (Zea mays); [15]): 5
- Plant response rating, Corn (corn (Zea mays); [16]): 15
- Corn plant response rating (corn (Zea mays); [17]): 5
- Plant response rating, Lambsquarters [11, 14]: 90
- Lambsquarters plant response rating [11, 15]: 98
- Plant response rating, Lambsquarters [11, 16]: 100
- Lambsquarters plant response rating [11, 17]: 100
- Plant response rating, Crabgrass, Large [12, 14]: 10
- Crabgrass, Large plant response rating [12, 15]: 15
- Plant response rating, Crabgrass, Large [12, 16]: 60
- Crabgrass, Large plant response rating [12, 17]: 15
- Plant response rating, Nutsedge, Yellow [13, 14]: 55
- Nutsedge, Yellow plant response rating [13, 15]: 75
- Plant response rating, Nutsedge, Yellow [13, 16]: 85
- Nutsedge, Yellow plant response rating [13, 17]: 80

SMILES: CCC(=O)Oc1c(OC)nn(C)c(=O)c1-c1c(C)sc2ccc(Cl)cc12 [Compound 131]
- Plant response rating, Soybean (soybean (Glycine max); [18]): 0
- Plant response rating, Soybean (soybean (Glycine max); [19]): 0
- Plant response rating, Soybean (soybean (Glycine max); [20]): 0
- Soybean plant response rating (soybean (Glycine max); [21]): 0
- Plant response rating, Galium [1, 18]: 85
- Plant response rating, Galium [1, 19]: 90
- Plant response rating, Galium [1, 20]: 95
- Galium plant response rating [1, 21]: 95
- Plant response rating, Foxtail, Giant [2, 18]: 35
- Plant response rating, Foxtail, Giant [2, 19]: 85
- Plant response rating, Foxtail, Giant [2, 20]: 90
- Foxtail, Giant plant response rating [2, 21]: 98
- Plant response rating, Oilseed Rape [3, 18]: 20
- Plant response rating, Oilseed Rape [3, 19]: 40
- Plant response rating, Oilseed Rape [3, 20]: 85
- Oilseed Rape plant response rating [3, 21]: 80
- Plant response rating, Ragweed [4, 18]: 65
- Plant response rating, Ragweed [4, 19]: 95
- Plant response rating, Ragweed [4, 20]: 98
- Ragweed plant response rating [4, 21]: 98
- Plant response rating, Velvetleaf [5, 18]: 0
- Plant response rating, Velvetleaf [5, 19]: 55
- Plant response rating, Velvetleaf [5, 20]: 85
- Velvetleaf plant response rating [5, 21]: 95
- Plant response rating, Pigweed [6, 18]: 60
- Plant response rating, Pigweed [6, 19]: 100
- Plant response rating, Pigweed [6, 20]: 100
- Pigweed plant response rating [6, 21]: 100
- Plant response rating, Wheat [7, 18]: 0
- Plant response rating, Wheat [7, 19]: 0
- Plant response rating, Wheat [7, 20]: 20
- Wheat plant response rating [7, 21]: 20
- Plant response rating, Blackgrass [8, 18]: 0
- Plant response rating, Blackgrass [8, 19]: 40
- Plant response rating, Blackgrass [8, 20]: 40
- Blackgrass plant response rating [8, 21]: 90
- Plant response rating, Ryegrass, Italian [9, 18]: 10
- Plant response rating, Ryegrass, Italian [9, 19]: 80
- Plant response rating, Ryegrass, Italian [9, 20]: 95
- Ryegrass, Italian plant response rating [9, 21]: 95
- Plant response rating, Barnyardgrass [10, 18]: 0
- Plant response rating, Barnyardgrass [10, 19]: 0
- Plant response rating, Barnyardgrass [10, 20]: 10
- Barnyardgrass plant response rating [10, 21]: 35
- Plant response rating, Corn (corn (Zea mays); [18]): 0
- Plant response rating, Corn (corn (Zea mays); [19]): 0
- Plant response rating, Corn (corn (Zea mays); [20]): 5
- Corn plant response rating (corn (Zea mays); [21]): 15
- Plant response rating, Lambsquarters [11, 18]: 60
- Plant response rating, Lambsquarters [11, 19]: 70
- Plant response rating, Lambsquarters [11, 20]: 85
- Lambsquarters plant response rating [11, 21]: 95
- Plant response rating, Crabgrass, Large [12, 18]: 0
- Plant response rating, Crabgrass, Large [12, 19]: 20
- Plant response rating, Crabgrass, Large [12, 20]: 60
- Crabgrass, Large plant response rating [12, 21]: 80
- Plant response rating, Nutsedge, Yellow [13, 18]: 10
- Plant response rating, Nutsedge, Yellow [13, 19]: 35
- Plant response rating, Nutsedge, Yellow [13, 20]: 65
- Nutsedge, Yellow plant response rating [13, 21]: 75
